US20050203189A1, “Remedies for chronic kidney diseases” (priority 2002, published 2005)

Key:
[1] = tested on: Brain microsomal Na+/Ca2+ exchanger; test: Brain microsomal Na+/Ca2+ exchanger, Na-dependent 45Ca uptake; format: biochemical; settings: rat brain microsomes; read-out: Inhibitory activity against Na+/Ca2+ exchange (Na-dependent 45Ca uptake), IC50 value, Brain
Method: Method of Measuring for Brain Microsomal Na^+/Ca^2+ Exchanger
Brain microsomes (1.5 mg/mil) obtained from 8-week-old rats were pre-treated with 160 mM NaCl-containing buffer to cause Na loading into membrane vesicles. This suspension was diluted 50-fold with 20 μM ^45CaCl2-containing buffer to induce ^45Ca uptake, followed by dilution with the buffer (0° C.) to stop the reaction. The membrane vesicles were immediately collected on a nitrocellulose filter. Subsequently, ^45Ca trapped inside the membrane vesicles was determined by liquid scintillation counting. The above assay for Na^+/Ca^2+ exchange activity in brain microsomes was performed according to the procedures described in J. Biol. Chem., vol. 257, p. 5111 (1982).

[2] = target: T1, Canine cardiac sarcolemmal vesicle Na+/Ca2+ exchanger (Canis lupus familiaris, UniProt P23685); test: Canine cardiac sarcolemmal vesicle Na+/Ca2+ exchanger, Na-dependent 45Ca uptake; format: biochemical; settings: canine cardiac sarcolemmal vesicles; read-out: Inhibitory activity against Na+/Ca2+ exchange (Na-dependent 45Ca uptake), IC50 value, Cardiac sarcolemma
T1 construct: Canine cardiac sarcolemmal vesicles (0.5 mg/ml) were prepared by centrifugal fractionation; from tissue; host or cells: canine cardiac sarcolemmal vesicles
Method: Method of Measuring for Canine Cardiac Sarcolemmal Vesicle Na^+/Ca^2+ Exchanger
Canine cardiac sarcolemmal vesicles (0.5 mg/ml) were prepared by centrifugal fractionation as described in Methods enzymology, vol. 157, p. 85 (1988) and suspended in Solution A (20 mM MOPS-Tris (pH 7.4), 160 mM NaCl or KCl), followed by incubation at room temperature for about one hour to cause Na or K loading into the vesicles. This suspension was diluted 50-fold with 20 μM ^45CaCl2-containing buffer to induce ^45Ca uptake, followed by dilution with the buffer (0° C.) to stop the reaction. The membrane vesicles were immediately collected on a nitrocellulose filter. Subsequently, ^45Ca trapped inside the membrane vesicles was determined by liquid scintillation counting. The Na^+/Ca^2+ exchange activity was evaluated by subtracting the value obtained for K loading from the value obtained for Na loading. The above assay for Na^+/Ca^2+ exchange activity in canine cardiac sarcolemmal vesicles was performed according to the procedures described in J. Biol. Chem., vol. 257, p. 5111 (1982).

[3] = target: T2, Rat renal cortex-derived BLMVs Na+/Ca2+ exchanger (Rattus norvegicus, UniProt Q01728); test: Rat renal cortex-derived BLMV Na+/Ca2+ exchange activity, Na-dependent 45Ca uptake; format: biochemical; settings: for IC50: rat renal cortex BLMVs, read-out: Inhibitory activity against Na+/Ca2+ exchange (Na-dependent 45Ca uptake), IC50 value, Renal cortex
T2 construct: BLMVs were prepared from rat renal cortex; from tissue; host or cells: rat renal cortex basolateral membrane vesicles
Method: Preparation of Rat Renal Cortex-Derived BLMVs (Basolateral Membrane Vesicles) and Method of Measuring for their Na^+/Ca^2+ Exchange Activity
BLMVs were prepared from rat renal cortex and assayed for Na^+/Ca^2+ exchange activity according to the procedures described in Am. J. Physiol., vol. 266, p. F785 (1994).
After being excised from rats, the kidneys were placed in ice-cold sucrose buffer ([…], 0.1 mM PMSF, 10 mM Tris-HCl (pH 7.6)) and decapsulated. The isolated cortex was then finely minced in the sucrose buffer and homogenized sequentially with a Dounce-type homogenizer and a Polytron-type homogenizer, followed by centrifugation at 2500 g for 15 minutes to collect the supernatant. Centrifugation was repeated at 24000 g for 20 minutes to collect the white fluffy portion of the pellet. After further addition of the sucrose buffer, the collected fraction was homogenized with a Dounce-type homogenizer, supplemented with Percoll and then centrifuged at 30000 g for 35 minutes to collect the middle layer. After addition of buffer (100 mM KCl, 100 mM mannitol, 5 mM HEPES-Tris (pH 7.4)), centrifugation was carried out at 34000 g for 30 minutes to collect the loose white pellet (BLMVs). The pellet was further suspended in the KCl-mannitol buffer and then centrifuged at 34000 g for 30 minutes to collect the precipitate, which was used for activity assay.
(Method of Measuring for Na^+/Ca^2+ Exchanger (Na-Dependent ^45Ca Uptake))
The BLMVs thus prepared were equilibrated at 37° C. for 10 minutes in pre-equilibration buffer (100 mM NaCl, 40 mM KCl, 1 mM MgSO4, 10 mM glucose, 5 mM HEPES-Tris (pH 7.4)) and then centrifuged at 20000 g for 5 minutes to collect the precipitate, which was then resuspended in the pre-equilibration buffer. Centrifugation was repeated to collect the precipitate, followed by resuspension in the pre-equilibration buffer. […] Subsequently, the filter was washed twice with 2 ml stop solution and then the amount of ^45Ca trapped inside the BLMVs was determined by using liquid scintillation method.

[4] = tested on: Dahl-salt sensitive (Dahl-S) rats; test: Kidney protective activity in Dahl-salt sensitive rat; format: in vivo; settings: 10 mg/kg orally twice a day, 6 weeks
Method: This test was conducted following the method described in J. Cardiovascular Pharmacology, Vol. 23, p. 970 (1994). Specifically, procedures are as follows.
Dahl-salt sensitive (Dahl-S) rats and Dahl-salt resistant (Dahl-R) rats as control animals (male, 7 weeks old) were used for the experiment. The rats were divided into 3 groups (6 individuals for each group) for the test. • Group I: Dahl-R+4% NaCl chow+solvent orally administered (twice a day) • Group II: Dahl-S+4% NaCl chow+solvent orally administered (twice a day) • Group III: Dahl-S+4% NaCl chow+SEA0400 10 mg/kg orally administered (twice a day)
Each animal was fed with a 4% NaCl high-salt-containing chow (whereas normal chow contains 0.6% NaCl) and water adlibitum. The solvent and SEA0400 were orally, administered twice a day (first time at 8:30 to 9:30 and second time at 16:30 to 17:30) for consecutive 6 weeks. In 6 weeks after the administration started, each of the rats was placed in a metabolic cage where urine was taken so that the amounts of protein and albumin in urine were measured to observe the effect on the kidney function. Determination of the amounts of protein and albumin in urine was performed following the method described in Bunseki Kagaku, Vol. 32, pp. E379-E386 (1983) and Hypertension, Vol. 40, No. 6, pp. 834-839 (2002) using an autoanalyzer (HITACHI Automatic Analyzer 7060).

ZSF-1 rats = test: Kidney protective activity in spontaneous diabetic rats (ZSF-1); format: in vivo, rat; settings: for Amount of urinary albumin excretion / Amount of urinary protein excretion: ZSF-1 rats
Method: ZSF-1 rats and ZSF-1/lean rats which were control animals (8 weeks old) obtained from The Jackson Laboratory were used for this test. The rats were divided into 5 groups (8 individuals for each group) for the test. • Group I: ZSF-1/lean+solvent orally administered (twice a day) • Group II: ZSF-1+solvent orally administered (twice a day) • Group III: ZSF-1+SEA0400 1 mg/kg orally administered (twice a day) • Group IV: ZSF-1+SEA0400 3 mg/kg orally administered (twice a day) • Group V: ZSF-1+SEA0400 10 mg/kg orally administered (twice a day)
The solvent and SEA0400 were orally administered twice a day (first time at 8:30 to 10:30 and second time at 16:30 to 18:30) for consecutive 8 weeks. Eight weeks after the administration started, each of the rats was placed in a metabolic cage where urine was taken so that the amounts of protein and albumin in urine were measured to observe the effect oil the kidney function. Determination of the amounts of protein and albumin was performed following the description of the above-mentioned references using an autoanalyzer (HITACHI 7060 Automatic Analyzer).

| IC50 [1] | IC50 [2] | IC50 [3] | Inhibitory activity relative to SEA0400, renal cortex-derived Na+/Ca2+ exchange activity ([3]; relative to SEA0400) | Compound | Kidney protective activity (effect on increase in urinary protein and albumin excretion) [4] | Amount of urinary albumin excretion ([4]; 4% NaCl chow, solvent group 109±14, Dahl-R 2±1) | Amount of urinary protein excretion ([4]; 4% NaCl chow, solvent group 144±11, Dahl-R 23±2) | Amount of urinary albumin excretion (ZSF-1 rats; 1 mg/kg orally twice a day, 8 weeks (Group III), solvent group 28±5, lean 1±0.1) | Amount of urinary protein excretion (ZSF-1 rats; 1 mg/kg orally twice a day, 8 weeks (Group III), solvent group 58±9, lean 14±1) | Amount of urinary albumin excretion (ZSF-1 rats; 3 mg/kg orally twice a day, 8 weeks (Group IV), solvent group 28±5) | Amount of urinary protein excretion (ZSF-1 rats; 3 mg/kg orally twice a day, 8 weeks (Group IV), solvent group 58±9) | Amount of urinary albumin excretion (ZSF-1 rats; 10 mg/kg orally twice a day, 8 weeks (Group V), solvent group 28±5, significantly lower) | Amount of urinary protein excretion (ZSF-1 rats; 10 mg/kg orally twice a day, 8 weeks (Group V), solvent group 58±9, significantly lower) | Kidney protective activity (effect on increase in urinary protein and albumin excretion) (ZSF-1 rats; spontaneous diabetic rats (ZSF-1), orally twice a day, 8 weeks) |
| --- | --- | --- | --- | --- | --- | --- | --- | --- | --- | --- | --- | --- | --- | --- |
| 11 µM | 7 µM | 6.8 µM | – | N=C(N)SCCc1ccc(OCc2ccc([N+](=O)[O-])cc2)cc1 [K-BR7943, 2-[2-[4-[nitrobenzyloxy]phenyl]ethyl]isothio-ureamethanesulfonate, reference compound] | – | – | – | – | – | – | – | – | – | – |
| – | – | – | about 0.07 fold | O=[N+]([O-])c1cccnc1Oc1ccc(OCc2ccc(F)cc2)cc1 [SEA0064] | – | – | – | – | – | – | – | – | – | – |
| 0.2 µM | 0.09 µM | 0.02 µM | – | CCOc1ccc(Oc2ccc(OCc3cc(F)ccc3F)cc2)c(N)c1 [SEA0400, 2-[4-[(2,5-difluorophenyl)methoxy]phenoxy]-5-ethoxyaniline] | significantly inhibited the increase in urinary protein and albumin excretion | 58 ± 8 mg/day | 91 ± 12 mg/day | 20 ± 5 mg/day | 40 ± 8 mg/day | 17 ± 5 mg/day | 37 ± 7 mg/day | 9 ± 2 mg/day | 29 ± 5 mg/day | significantly inhibited the increase in urinary protein and albumin excretion |
